# Results as given in BindingDB's records for PubMed 7965765 (University of Cincinnati, 1994).
# Values joined by “and” are separate entries in the source; they are usually repeats but may differ in a detail not shown here. Equal entries are not always repeated.
# Target: T1, Thromboxane A2 receptor (Homo sapiens, UniProt P21731)
# T1 sequence (P21731 whole entry): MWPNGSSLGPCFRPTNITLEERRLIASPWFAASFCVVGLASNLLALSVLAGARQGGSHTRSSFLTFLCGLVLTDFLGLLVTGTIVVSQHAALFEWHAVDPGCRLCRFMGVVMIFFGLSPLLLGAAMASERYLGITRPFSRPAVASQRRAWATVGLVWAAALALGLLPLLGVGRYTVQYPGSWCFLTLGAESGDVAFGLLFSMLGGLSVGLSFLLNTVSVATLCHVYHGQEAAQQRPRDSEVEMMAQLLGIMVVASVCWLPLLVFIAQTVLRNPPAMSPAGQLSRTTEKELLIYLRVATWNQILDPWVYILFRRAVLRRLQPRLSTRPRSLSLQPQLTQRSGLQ
row,SMILES,Ki
1,CC1(C)C2CC(NCC(O)Cc3ccc(O)c(I)c3)C(CC=CCCCC(=O)O)C1C2 (centres undefined) [NSC_122979],117 nM and 400 nM and 121 nM
2,O=C(O)CCC/C=C\C[C@@H]1[C@@H](/C=C/[C@@H](O)COc2ccc(I)cc2)[C@H]2CC[C@@H]1O2 [CAS_128719-90-4],3.7 nM and 1.4 nM
3,CCCCCC(O)C=CC1C2COC(C2)C1CC=CCCCC(=O)O (centres undefined) [NSC_114865],64 nM and 44 nM and 38 nM
4,CCCCC[C@H](O)/C=C/C1[C@@H](C/C=C\CCCC(=O)O)[C@H]2CO[C@@H]1C2 (some centres undefined) [U46619],77 nM and 82 nM and 50 nM
